Key:
[1] = system: clinical isolates of A. baumannii; assay: MIC for clinical isolates in RPMI (low iron) media (Table 4); format: cell-based; parameters: key to MIC of Iron Chelators: NG = no growth in table 4; settings: for MIC: Acinetobacter baumannii
Description: […] […] Tests were performed in triplicate. MIC of iron chelators were determined for noscomial ESKAPE pathogens.
For a number of strains, the iron chelators produced no growth of bacteria (NG).

[2] = Stability in aqueous solution; format: physicochemical
[3] = system: A. baumannii, strain AB5711; assay: Growth curves (OD600) in CAMHB with compound 4; format: cell-based
Description: It should be noted that the inhibition occurred in a dose-responsive manner.

[4] = system: A. baumannii strain AB19606; assay: Growth (OD600) with chelator, Rifampin or both; format: cell-based; settings: CAMHB
Description: A. baumannii strain AB19606 was grown in CAMHB and challenged with 1.5×MIC compound 4 (Var) or 1.5×MIC Triapine (Tri) with or without 0.75×MIC Rifampin (Rif). Growth was estimated by absorbance at 600 nm (y-axis) at 0 or 24 hours.

[5] = system: clinical isolates of A. baumannii; assay: MIC for clinical isolates in CAMHB media (Table 3); format: cell-based; settings: Acinetobacter baumannii
Description: Individual MICs were determined following the microdilution method recommended by CLSI in cationic-adjusted Mueller-Hinton Broth (CAMHB), or M9 media. […] Tests were performed in triplicate. MIC of iron chelators were determined for noscomial ESKAPE pathogens.

E. coli strain EC35218 = assay: Growth (OD600) with chelator, Rifampin or both; format: cell-based; settings: CAMHB
Description: E. coli strain EC35218 was grown in CAMHB and challenged with 1.5×MIC compound 4 (Var) or 1.5×MIC Triapine (Tri) with or without 0.75×MIC Rifampin (Rif). Growth was estimated by absorbance at 600 nm (y-axis) at 0 or 24 hours.

[6] = AB3638, read-out: MIC of Iron Chelators
[7] = AB3785, read-out: MIC of Iron Chelators
[8] = AB3806, read-out: MIC of Iron Chelators
[9] = AB3917, read-out: MIC of Iron Chelators
[10] = AB4025, read-out: MIC of Iron Chelators
[11] = AB4026, read-out: MIC of Iron Chelators
[12] = AB4027, read-out: MIC of Iron Chelators
[13] = AB4052, read-out: MIC of Iron Chelators
[14] = AB4269, read-out: MIC of Iron Chelators
[15] = AB4448, read-out: MIC of Iron Chelators
[16] = AB4456, read-out: MIC of Iron Chelators
[17] = AB4490, read-out: MIC of Iron Chelators
[18] = AB4498, read-out: MIC of Iron Chelators
[19] = AB4795, read-out: MIC of Iron Chelators
[20] = AB4857, read-out: MIC of Iron Chelators
[21] = AB4878, read-out: MIC of Iron Chelators
[22] = AB4932, read-out: MIC of Iron Chelators
[23] = AB4957, read-out: MIC of Iron Chelators
[24] = AB4991, read-out: MIC of Iron Chelators
[25] = AB5001, read-out: MIC of Iron Chelators
[26] = AB5075, read-out: MIC of Iron Chelators
[27] = AB5197, read-out: MIC of Iron Chelators
[28] = AB5256, read-out: MIC of Iron Chelators
[29] = AB5674, read-out: MIC of Iron Chelators
[30] = AB5711, read-out: MIC of Iron Chelators
[31] = 1.5×MIC chelator in combination with 0.75×MIC Rifampin
[32] = alone: 1.5×MIC chelator or 0.75×MIC Rifampin

MIC of Iron Chelators ([1]; AB967): NG
MIC of Iron Chelators ([1]; AB2828): NG
MIC of Iron Chelators ([1]; AB3340): NG
MIC of Iron Chelators ([1]; AB3560): NG
MIC of Iron Chelators ([1]; AB3927): NG
MIC [1, 6]: 64 µg/mL
MIC [1, 7]: 32 µg/mL
MIC [1, 8]: 32 µg/mL
MIC [1, 9]: 32 µg/mL
MIC [1, 10]: 32 µg/mL
MIC [1, 11]: 32 µg/mL
MIC [1, 12]: 32 µg/mL
MIC [1, 13]: 64 µg/mL
MIC [1, 14]: 32 µg/mL
MIC [1, 15]: 64 µg/mL
MIC [1, 16]: 32 µg/mL
MIC [1, 17]: 32 µg/mL
MIC [1, 18]: 64 µg/mL
MIC [1, 19]: 32 µg/mL
MIC [1, 20]: 64 µg/mL
MIC [1, 21]: 64 µg/mL
MIC [1, 22]: 125 µg/mL
MIC [1, 23]: 125 µg/mL
MIC [1, 24]: 8 µg/mL
MIC [1, 25]: 32 µg/mL
MIC [1, 26]: 64 µg/mL
MIC [1, 27]: 32 µg/mL
MIC [1, 28]: 125 µg/mL
MIC [1, 29]: 32 µg/mL
MIC [1, 30]: 64 µg/mL
stability in aqueous solution [2]: highly stable
MIC ([5]; AB967, read-out: MIC of Iron Chelators): 500 µg/mL
MIC ([5]; AB2828, read-out: MIC of Iron Chelators): 500 µg/mL
MIC ([5]; AB3340, read-out: MIC of Iron Chelators): 500 µg/mL
MIC ([5]; AB3560, read-out: MIC of Iron Chelators): 500 µg/mL
MIC [5, 6]: 500 µg/mL
MIC [5, 7]: 500 µg/mL
MIC [5, 8]: 1000 µg/mL
MIC [5, 9]: 500 µg/mL
MIC ([5]; AB3927, read-out: MIC of Iron Chelators): 500 µg/mL
MIC [5, 10]: 500 µg/mL
MIC [5, 11]: 500 µg/mL
MIC [5, 12]: 500 µg/mL
MIC [5, 13]: 1000 µg/mL
MIC [5, 14]: 500 µg/mL
MIC [5, 15]: 500 µg/mL
MIC [5, 16]: 500 µg/mL
MIC [5, 17]: 500 µg/mL
MIC [5, 18]: 500 µg/mL
MIC [5, 19]: 500 µg/mL
MIC [5, 20]: 500 µg/mL
MIC [5, 21]: 500 µg/mL
MIC [5, 22]: 500 µg/mL
MIC [5, 23]: 500 µg/mL
MIC [5, 24]: 500 µg/mL
MIC [5, 25]: 500 µg/mL
MIC [5, 26]: 500 µg/mL
MIC [5, 27]: 500 µg/mL
MIC [5, 28]: 500 µg/mL
MIC [5, 29]: 500 µg/mL
MIC [5, 30]: 500 µg/mL
SMILES: OCCN1CCN(CCc2ccc(O)c3ncccc23)CC1 [Compound 4, 5-(2-(4-(2-hydroxyethyl)piperazin-1-yl)ethyl)-8-quinolinol]
OD600 (growth curves) [3]: dramatically reduced
reduction of bacteria (absorbance at 600 nm, 24 hours) [4, 31]: significant reduction in bacteria
reduction of bacteria (absorbance at 600 nm, 24 hours) [4, 32]: no reduction of bacteria
reduction of bacteria (absorbance at 600 nm, 24 hours) (E. coli strain EC35218; [31]): significant reduction in bacteria
reduction of bacteria (absorbance at 600 nm, 24 hours) (E. coli strain EC35218; [32]): did not result in a reduction of bacteria
